Series [1] in a line: refractive index (Na D-line) (dimensionless). The note with it: 293.15 K; 101.33 kPa; Liquid; Standard Abbe refractometry.
Series [2] is described as follows: Molar enthalpy of transition or fusion. The note with it: Crystal; DSC.
The conditions of series [3]: Crystal; DSC.

Molecules are shown by their SMILES. ± gives the expanded uncertainty stated by the source.

The term refractive index denotes the speed of light in vacuum divided by its phase velocity in the sample.

As to `CCCCO` [butan-1-ol], the refractive index in series [1] was 1.3986 ± 0.0011.
In the case of `O=C(O)c1ccccc1` [benzoic acid], in series [2], the “Molar enthalpy of transition or fusion” value came out at 4.19 ± 0.43 kcal/mol. For the same compound, in series [3], the Triple point temperature is listed as 396.8 ± 1 K.
As to `CN(C)C=O` [dimethylformamide], in series [1], the refractive index was determined as 1.4303 ± 0.001.
For the compound `CCCO` [propan-1-ol], in series [1], the refractive index was 1.3852 ± 0.001.
The same measure, in the same setting: with `CCCC(C)=O` [pentan-2-one] the figure was 1.3892 ± 0.0011; with `CC(C)CO` [2-methyl-1-propanol], 1.3957 ± 0.0011.
Regarding `O` [water], in series [1], the refractive index is reported as 1.3331 ± 0.001.
Still for that read-out and setting: for `C[S+](C)[O-]` [dimethyl sulfoxide] the value was 1.4791 ± 0.0011; for `CC(C)O` [propan-2-ol], 1.3774 ± 0.0011.
As for `CC[C@@H]([C@H](C)O)n1ncn(-c2ccc(N3CCN(c4ccc(OC[C@@H]5CO[C@@](Cn6cncn6)(c6ccc(F)cc6F)C5)cc4)CC3)cc2)c1=O` [posaconazole], the “Molar enthalpy of transition or fusion” value in series [2] was found to be 11.4 ± 1.17 kcal/mol. Moreover, the Triple point temperature in series [3] came to 444.6 ± 1 K.
The like results for `C[C@@H](c1ncncc1F)[C@](O)(Cn1cncn1)c1ccc(F)cc1F` [voriconazole] were, in that order, 6.43 ± 0.645 kcal/mol and 403.4 ± 1 K.
For `CCC(C)=O` [butanone], the refractive index in series [1] is given as 1.379 ± 0.0011.
Turning to `CCO` [ethanol], the refractive index in series [1] amounted to 1.3613 ± 0.0011.

For the origin of these results see the NIST ThermoML archive (doi:10.1021/acs.jced.9b00179).
